IC50 data for one compound are collected here from BindingDB's records for PubMed 39722476 (Nanjing University of Chinese Medicine).

The target in this experiment is Methylosome protein 50/Protein arginine N-methyltransferase 5 (Homo sapiens, UniProt O14744+Q9BQA1). Kind of experiment: Inhibition of recombinant N-terminal FLAG-tagged human full-length PRMT5/full length human MEP50 extracted from baculovirus expression system using [3H]-SAM as substrate preincubated for 15 mins followed by substrate addition and measured after 60 mins by multimode plate reader analysis.
Sequence of Methylosome protein 50/Protein arginine N-methyltransferase 5 (O14744 whole entry): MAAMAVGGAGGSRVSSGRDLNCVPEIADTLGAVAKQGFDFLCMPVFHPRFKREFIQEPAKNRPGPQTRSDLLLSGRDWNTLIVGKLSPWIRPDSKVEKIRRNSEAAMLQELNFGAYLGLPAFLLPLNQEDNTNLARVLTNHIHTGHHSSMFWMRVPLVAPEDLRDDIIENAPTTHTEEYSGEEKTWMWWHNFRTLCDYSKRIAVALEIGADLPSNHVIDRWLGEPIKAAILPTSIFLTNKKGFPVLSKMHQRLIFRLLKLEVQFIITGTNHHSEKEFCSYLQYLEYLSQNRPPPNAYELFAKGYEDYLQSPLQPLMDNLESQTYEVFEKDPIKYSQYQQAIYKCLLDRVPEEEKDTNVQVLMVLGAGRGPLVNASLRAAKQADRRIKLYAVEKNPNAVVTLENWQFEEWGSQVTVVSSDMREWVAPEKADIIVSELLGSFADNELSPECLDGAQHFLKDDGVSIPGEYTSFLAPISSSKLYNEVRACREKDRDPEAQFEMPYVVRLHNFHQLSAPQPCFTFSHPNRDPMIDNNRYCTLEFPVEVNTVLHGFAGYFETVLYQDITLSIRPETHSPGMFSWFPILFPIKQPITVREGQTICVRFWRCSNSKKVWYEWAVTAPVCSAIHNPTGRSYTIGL
Sequence of Methylosome protein 50/Protein arginine N-methyltransferase 5 (Q9BQA1 whole entry): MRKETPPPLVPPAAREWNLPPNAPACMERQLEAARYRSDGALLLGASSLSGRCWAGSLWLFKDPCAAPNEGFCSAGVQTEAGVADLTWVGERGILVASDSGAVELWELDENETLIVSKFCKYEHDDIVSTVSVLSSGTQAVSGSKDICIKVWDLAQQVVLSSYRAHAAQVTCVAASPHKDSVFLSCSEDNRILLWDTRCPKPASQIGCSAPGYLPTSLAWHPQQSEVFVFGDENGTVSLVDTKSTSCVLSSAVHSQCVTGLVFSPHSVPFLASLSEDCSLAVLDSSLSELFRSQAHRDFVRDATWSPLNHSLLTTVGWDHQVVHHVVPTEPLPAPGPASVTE

Turning to `CC(=O)N1CCC(Nc2cc3c(cn2)C2(CC2)CN(C[C@H](O)CN2CCc4ccccc4C2)C3=O)CC1` [US20240116918, Example 1], the IC50 amounted to 33 nM.
